# Read-outs that look alike come from different tables or passages of the source.
# Columns and labels:
# [1] = tested on: MDR A. baumannii clinical isolates; test: Resistance phenotype (MICs of antibiotics) of MDR clinical isolates; type: cell-based, Acinetobacter baumannii; settings: Acinetobacter baumannii
# [2] = tested on: MDR E. coli clinical isolates; test: as above; type: cell-based, Escherichia coli; settings: Escherichia coli, read-out: MIC
# [3] = tested on: MDR E. cloacae clinical isolates; test: as above; type: cell-based, Enterobacter cloacae; settings: Enterobacter cloacae, read-out: MIC
# [4] = tested on: MDR P. aeruginosa clinical isolates; test: as above; type: cell-based, Pseudomonas aeruginosa; settings: Pseudomonas aeruginosa
# [5] = tested on: MDR K. pneumoniae clinical isolates; test: as above; type: cell-based, Klebsiella pneumoniae; settings: Klebsiella pneumoniae, read-out: MIC
# [6] = tested on: wild-type A. baumannii ATCC 17978; test: Checkerboard assay; type: cell-based, Acinetobacter baumannii; settings: for MICcombo: antibiotic with dUSTBβP 3 at 8 μg/mL; for MIC: Acinetobacter baumannii, ATCC17978, 18 h, read-out: MICantibiotic
# Text: (§1) Overnight-grown bacterial culture diluted in saline to 0.5 McFarland turbidity was successively diluted 1:50 in MHB to achieve a final concentration of 5 × 10^5 CFU/mL for inoculation. The antibiotic and adjuvant were serially diluted 2-fold along the x-axis and y-axis, respectively, resulting in varying concentrations of both agents in each well. […] Confirmation of turbidity was done using an EMax Plus microplate reader (Molecular Devices, United States) at a wavelength of 590 nm. Wells comprising MHB alone or in the presence of bacterial cells were used as negative or positive controls, respectively. Fractional inhibitory concentration index (FICI) is determined by adding the FICs of both antibiotic and adjuvant. The FIC of the antibiotic is calculated by dividing the MIC of the antibiotic in the presence of the adjuvant by the MIC of the antibiotic alone. Similarly, the FIC of the adjuvant is calculated by dividing the MIC of the adjuvant in the presence of the antibiotic by the MIC of the adjuvant alone.
# [7] = tested on: wild-type P. aeruginosa PAO1; test: microbe, parasite or virus in culture; type: cell-based, Pseudomonas aeruginosa; settings: for MICcombo: antibiotic with dUSTBβP 3 at 8 μg/mL; for MIC: Pseudomonas aeruginosa, read-out: MICantibiotic
# Text: as §1
# [8] = tested on: wild-type E. coli ATCC 25922; test: microbe, parasite or virus in culture; type: cell-based, Escherichia coli; settings: for MICcombo: antibiotic with dUSTBβP 3 at 8 μg/mL; for MIC: Escherichia coli, ATCC25922, 18 h, read-out: MICantibiotic
# Procedure: The adjuvant activities of dUSTBβPs were evaluated using checkerboard assay as previously described ([Berry et al., 2019]). Overnight-grown bacterial culture diluted in saline to 0.5 McFarland turbidity was successively diluted 1:50 in MHB to achieve a final concentration of 5 × 10^5 CFU/mL for inoculation. The antibiotic and adjuvant were serially diluted 2-fold along the x-axis and y-axis, respectively, resulting in varying concentrations of both agents in each well. Subsequently, the 96-well plate was incubated with equal volumes of bacterial inoculum at 37°C for 18 h. Confirmation of turbidity was done using an EMax Plus microplate reader (Molecular Devices, United States) at a wavelength of 590 nm. Wells comprising MHB alone or in the presence of bacterial cells were used as negative or positive controls, respectively. Fractional inhibitory concentration index (FICI) is determined by adding the FICs of both antibiotic and adjuvant. The FIC of the antibiotic is calculated by dividing the MIC of the antibiotic in the presence of the adjuvant by the MIC of the antibiotic alone. Similarly, the FIC of the adjuvant is calculated by dividing the MIC of the adjuvant in the presence of the antibiotic by the MIC of the adjuvant alone. FICI ≤ 0.5, 0.5 < x ≤ 4, and >4 were deemed synergistic, additive, and antagonistic, respectively ([Meletiadis et al., 2010]).
SMILES,"MIC ([1]; AB027, read-out: MIC)","MIC ([1]; AB031, read-out: MIC)",MIC ([2]; 94393 (mcr-1 +)),MIC ([2]; 94474 (mcr-1 +)),MIC [2]; 107115,MIC [3]; 117029,"MIC ([4]; 259-96196, read-out: MIC)","MIC ([4]; 262-101856, read-out: MIC)","MIC ([4]; 264-104354, read-out: MIC)","MIC ([4]; 91433, read-out: MIC)","MIC ([4]; 114228, read-out: MIC)",MIC [5]; 113250,MIC [5]; 113254,MIC [5]; 116381,further results
CC(=O)NC[C@H]1CN(c2ccc(N3CCOCC3)c(F)c2)C(=O)O1 [Linezolid],–,–,–,–,–,–,–,–,–,–,–,–,–,–,"MICcombo ([6]; ATCC 17978): 64 µg/mL; MIC ([6]; ATCC 17978, antibiotic alone (Supplementary Table 7)): 512 µg/mL; MICcombo ([7]; PAO1): 256 µg/mL; MIC ([7]; 18 h, PAO1, antibiotic alone (Supplementary Table 7)): 1020 µg/mL; MICcombo ([8]; ATCC 25922): 16 µg/mL; MIC ([8]; ATCC 25922, antibiotic alone (Supplementary Table 7)): 256 µg/mL"
CN[C@H](CC(C)C)C(=O)N[C@H]1C(=O)N[C@@H](CC(N)=O)C(=O)N[C@H]2C(=O)N[C@H]3C(=O)N[C@H](C(=O)N[C@H](C(=O)O)c4cc(O)cc(O)c4-c4cc3ccc4O)[C@H](O)c3ccc(c(Cl)c3)Oc3cc2cc(c3O[C@@H]2O[C@H](CO)[C@@H](O)[C@H](O)[C@H]2O[C@H]2C[C@](C)(N)[C@H](O)[C@H](C)O2)Oc2ccc(cc2Cl)[C@H]1O [Vancomycin],–,–,–,–,–,–,–,–,–,–,–,–,–,–,"MICcombo ([6]; ATCC 17978): 32 µg/mL; MIC [6]: > 128 µg/mL; MICcombo ([7]; PAO1): 256 µg/mL; MIC ([7]; PAO1, 18 h): 256 µg/mL; MICcombo ([8]; ATCC 25922): 64 µg/mL; MIC [8]: 128 µg/mL"
"Cc1nnc(SCC2=C(C(=O)O)N3C(=O)[C@@H](NC(=O)Cn4cnnn4)[C@H]3SC2)s1 [CFZ, cefazolin]",> 128 µg/mL,> 128 µg/mL,1 µg/mL,4 µg/mL,> 128 µg/mL,> 128 µg/mL,> 128 µg/mL,> 128 µg/mL,> 128 µg/mL,> 128 µg/mL,–,1 µg/mL,1 µg/mL,> 128 µg/mL,"MIC ([1]; 92247, read-out: MIC): 128 µg/mL; MIC [3]; 118564: > 128 µg/mL; MIC [3]; 121187: 32 µg/mL"
"CO/N=C(\C(=O)N[C@@H]1C(=O)N2C(C(=O)O)=C(COC(C)=O)CS[C@H]12)c1csc(N)n1 [CTX, cefotaxime]",–,16 µg/mL,–,–,–,–,2050 µg/mL,128 µg/mL,2050 µg/mL,–,128 µg/mL,–,–,–,MIC [1]: > 256 µg/mL; MIC [4]; 91433: 1020 µg/mL

# Continued, in another order:
"MIC ([1]; AB027, read-out: MIC)","MIC ([1]; AB031, read-out: MIC)",MIC ([2]; 94393 (mcr-1 +)),MIC ([2]; 94474 (mcr-1 +)),MIC [2]; 107115,MIC [3]; 117029,"MIC ([4]; 259-96196, read-out: MIC)","MIC ([4]; 262-101856, read-out: MIC)","MIC ([4]; 264-104354, read-out: MIC)","MIC ([4]; 91433, read-out: MIC)","MIC ([4]; 114228, read-out: MIC)",MIC [5]; 113250,MIC [5]; 113254,MIC [5]; 116381,SMILES,further results
0.5 µg/mL,0.25 µg/mL,0.5 µg/mL,1 µg/mL,0.125 µg/mL,0.5 µg/mL,8 µg/mL,8 µg/mL,8 µg/mL,16 µg/mL,8 µg/mL,1 µg/mL,0.5 µg/mL,0.5 µg/mL,"CN(C)[C@@H]1C(O)=C(C(N)=O)C(=O)[C@@]2(O)C(O)=C3C(=O)c4c(O)c(NC(=O)CN5CCCC5)cc(F)c4C[C@H]3C[C@@H]12 [ERC, eravacycline]","MIC ([1]; LAC-4, read-out: MIC): 0.06 µg/mL"
–,–,4 µg/mL,16 µg/mL,> 32 µg/mL,> 32 µg/mL,> 32 µg/mL,> 32 µg/mL,> 32 µg/mL,> 32 µg/mL,–,1 µg/mL,1 µg/mL,16 µg/mL,"CO[C@@]1(NC(=O)Cc2cccs2)C(=O)N2C(C(=O)O)=C(COC(N)=O)CS[C@@H]21 [FOX, cefoxitin]","MIC ([1]; 92247, read-out: MIC): 32 µg/mL; MIC [3]; 118564: > 32 µg/mL; MIC [3]; 121187: > 32 µg/mL"
1 µg/mL,2 µg/mL,4 µg/mL,16 µg/mL,4 µg/mL,4 µg/mL,64 µg/mL,64 µg/mL,64 µg/mL,128 µg/mL,16 µg/mL,2 µg/mL,4 µg/mL,4 µg/mL,"CN(C)c1cc(CNCC(C)(C)C)c(O)c2c1C[C@H]1C[C@H]3[C@H](N(C)C)C(O)=C(C(N)=O)C(=O)[C@@]3(O)C(O)=C1C2=O [OMC, omadacycline]","MIC ([1]; LAC-4, read-out: MIC): 1 µg/mL"
–,–,≤ 0.03 µg/mL,≤ 0.03 µg/mL,> 32 µg/mL,≤ 0.03 µg/mL,> 32 µg/mL,> 32 µg/mL,> 32 µg/mL,> 32 µg/mL,–,≤ 0.03 µg/mL,≤ 0.03 µg/mL,0.12 µg/mL,"C[C@@H](O)[C@H]1C(=O)N2C(C(=O)O)=C(S[C@@H]3CN[C@H](C(=O)Nc4cccc(C(=O)O)c4)C3)[C@H](C)[C@H]12 [ETP, ertapenem]",–
